Experimental data taken from publication PMC12036814 (Angewandte Chemie (International Ed. in English), 2025).
Read-outs that look alike come from different tables or passages of the source.

What was measured:
Test in all cases: Thermal protein profiling (TPP) in intact HEK293 cells
Format in all cases: cell-based
Settings in all cases: 1 h
ULK3 = target: T1, ULK3 (Homo sapiens, UniProt Q6PHR2)
T1 construct: endogenous in cells; host or cells: HEK293
T1 sequence (Q6PHR2 1-472): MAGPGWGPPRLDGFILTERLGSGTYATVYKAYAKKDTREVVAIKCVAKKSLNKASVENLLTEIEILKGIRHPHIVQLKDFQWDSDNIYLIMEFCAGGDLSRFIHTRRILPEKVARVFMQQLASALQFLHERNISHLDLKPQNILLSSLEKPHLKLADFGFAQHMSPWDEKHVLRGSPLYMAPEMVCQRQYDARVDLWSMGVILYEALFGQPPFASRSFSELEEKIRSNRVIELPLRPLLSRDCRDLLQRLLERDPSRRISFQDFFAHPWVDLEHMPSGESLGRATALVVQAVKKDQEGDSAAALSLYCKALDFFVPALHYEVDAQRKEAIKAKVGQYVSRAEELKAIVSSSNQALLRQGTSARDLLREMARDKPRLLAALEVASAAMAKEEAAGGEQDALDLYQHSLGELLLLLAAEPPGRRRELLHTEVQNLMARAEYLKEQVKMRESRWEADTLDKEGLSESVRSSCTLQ
Description: (§1) incubated in a thermoshaker (600 rpm, 16 h, 37 °C). The digest was stopped by adding 10 μL formic
(§2) acid (FA) and vortexing followed by centrifugation (12,000 ×g, 3 min, room temperature). 50 mg
(§3) SepPak C18 columns (Waters, Milford, USA, Cat# WAT054960) were equilibrated by gravity flow two
(§4) times with 1 mL acetonitrile and three times with 1 mL aqueous 0.1% trifluoroacetic acid (TFA) solution.
(§5) Subsequently, the samples were loaded by gravity flow, washed three times with 1 mL aqueous 0.1%
(§6) TFA solution and once with 0.5 mL aqueous 0.5% formic acid (F A) solution. Elution of peptides into
(§7) new 2.0 mL Protein LoBind Eppendorf tubes was performed by two times addition of 250 μL elution
(§8) buffer (80% acetonitrile, 0.5% FA) by gravity flow followed by 250 μL elution buffer by vacuum flow
(§9) until all liquid was eluted from the column. The eluates were lyophilized. Before MS measurement the
(§10) (brief centrifugation after each step).
(§11) Thermal protein profiling (TPP)
(§12) The experiment was performed similarly to TPP-TR experiments described by Franken et al. with minor
(§13) modifications.5 HEK293 cells were grown in 8 T175 flasks to approx. 80-90% confluency. Per replicate
(§14) volume of 0.1 N HCl as vehicle control. Per condition two replicates were used, leading to a total of 8
(§15) T175 flasks. The cells were washed with PBS, detached with accutase, the two flask per replicate
(§16) condition combined and the cells pelletized (500 ×g, 3 min, r.t.). The medium was removed and each
(§17) pellet (Cipro #1, Cipro #2, Ctrl. #1, Ctrl #2) washed twice with cold PBS. Each pellet was resuspended
(§18) depending on the sample. The cell suspension of each sample was distributed into 10 PCR tubes
(§19) (100 µL per tube), resulting in 10 stripes á 4 tubes (2×2 conditions, 10 temperature points). The PCR
(§20) tubes were subjected to the temperature gradient using a PCR cycler.
(§21) limitations, two separate programs had to be run to cover the desired temperature range (see
(§22) Table S4). The PCR tubes were heat-treated according to the two programs for 3 min and directly snap
(§23) frozen in liquid nitrogen.
(§24) manufacturer instructions.

ADAL = target: T2, ADAL (Homo sapiens, UniProt Q6DHV7)
T2 construct: endogenous in cells; host or cells: HEK293
T2 sequence (Q6DHV7 1-355): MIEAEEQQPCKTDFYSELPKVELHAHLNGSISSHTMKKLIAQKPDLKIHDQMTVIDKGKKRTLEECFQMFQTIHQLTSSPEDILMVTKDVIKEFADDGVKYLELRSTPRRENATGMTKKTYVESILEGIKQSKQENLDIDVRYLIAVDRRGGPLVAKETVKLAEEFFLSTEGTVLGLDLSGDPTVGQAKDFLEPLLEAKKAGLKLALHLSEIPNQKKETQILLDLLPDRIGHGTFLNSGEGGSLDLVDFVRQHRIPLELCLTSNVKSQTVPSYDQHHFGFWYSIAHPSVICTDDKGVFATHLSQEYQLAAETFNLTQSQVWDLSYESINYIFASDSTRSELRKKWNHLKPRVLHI
Description: as §1, §2, §3, §4, §5, §6, §7, §8, §9, §10, §11, §12, §13, §14, §15, §16, §17, §18, §19, §20, §21, §22, §23, §24

RAP1A = target: T3, RAP1A (Homo sapiens, UniProt P62834)
T3 construct: endogenous in cells; host or cells: HEK293
T3 sequence (P62834 1-184): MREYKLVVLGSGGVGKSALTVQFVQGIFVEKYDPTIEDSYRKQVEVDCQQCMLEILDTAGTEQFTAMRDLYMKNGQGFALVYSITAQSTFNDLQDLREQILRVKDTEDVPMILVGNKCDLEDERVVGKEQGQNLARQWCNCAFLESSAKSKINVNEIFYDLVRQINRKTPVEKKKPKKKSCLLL
Description: as §1, §2, §3, §4, §5, §6, §7, §8, §9, §10, §11, §12, §13, §14, §15, §16, §17, §18, §19, §20, §21, §22, §23, §24

Compound: O=C(O)c1cn(C2CC2)c2cc(N3CCNCC3)c(F)cc2c1=O [Ciprofloxacin]
- ΔTm at 70 µM (ULK3; read-out: ΔTm Rep. 1): 1.72 °C
- ΔTm at 70 µM (ULK3; read-out: ΔTm Rep. 2): 4.39 °C
- ΔTm at 70 µM (ADAL; read-out: ΔTm Rep. 1): 5.91 °C
- ΔTm at 70 µM (ADAL; read-out: ΔTm Rep. 2): 6.21 °C
- ΔTm at 70 µM (RAP1A; read-out: ΔTm Rep. 1): 1.79 °C
- ΔTm at 70 µM (RAP1A; read-out: ΔTm Rep. 2): 2.89 °C
